Test results: US20190269752A1, “Methods for the Prevention or Treatment of Epilepsy” (Duke University, priority 2018, published 2019)
Where a SMILES comes first, the peptide text is derived from it. [ ]: non-standard residue; d: D form. pY = N[C@@H](Cc1ccc(OP(=O)(O)O)cc1)C(=O)O

Experiments:
PLCγ1 = target: T1, PLCγ1 (Mus musculus, UniProt Q62077); test: Inhibition of PLCγ1 activation: western blot of p-PLCγ1 (pY783)/PLCγ1 in hippocampal lysates after intraperitoneal injection; format: in vivo; details: single dose 20 mg/kg i.p., wild type mice, hippocampal lysates at 3 h; dose dependent (10 or 20 mg/kg)
T1 construct: from tissue; host or cells: hippocampus of adult wild type mice
T1 sequence (Q62077 1-1302): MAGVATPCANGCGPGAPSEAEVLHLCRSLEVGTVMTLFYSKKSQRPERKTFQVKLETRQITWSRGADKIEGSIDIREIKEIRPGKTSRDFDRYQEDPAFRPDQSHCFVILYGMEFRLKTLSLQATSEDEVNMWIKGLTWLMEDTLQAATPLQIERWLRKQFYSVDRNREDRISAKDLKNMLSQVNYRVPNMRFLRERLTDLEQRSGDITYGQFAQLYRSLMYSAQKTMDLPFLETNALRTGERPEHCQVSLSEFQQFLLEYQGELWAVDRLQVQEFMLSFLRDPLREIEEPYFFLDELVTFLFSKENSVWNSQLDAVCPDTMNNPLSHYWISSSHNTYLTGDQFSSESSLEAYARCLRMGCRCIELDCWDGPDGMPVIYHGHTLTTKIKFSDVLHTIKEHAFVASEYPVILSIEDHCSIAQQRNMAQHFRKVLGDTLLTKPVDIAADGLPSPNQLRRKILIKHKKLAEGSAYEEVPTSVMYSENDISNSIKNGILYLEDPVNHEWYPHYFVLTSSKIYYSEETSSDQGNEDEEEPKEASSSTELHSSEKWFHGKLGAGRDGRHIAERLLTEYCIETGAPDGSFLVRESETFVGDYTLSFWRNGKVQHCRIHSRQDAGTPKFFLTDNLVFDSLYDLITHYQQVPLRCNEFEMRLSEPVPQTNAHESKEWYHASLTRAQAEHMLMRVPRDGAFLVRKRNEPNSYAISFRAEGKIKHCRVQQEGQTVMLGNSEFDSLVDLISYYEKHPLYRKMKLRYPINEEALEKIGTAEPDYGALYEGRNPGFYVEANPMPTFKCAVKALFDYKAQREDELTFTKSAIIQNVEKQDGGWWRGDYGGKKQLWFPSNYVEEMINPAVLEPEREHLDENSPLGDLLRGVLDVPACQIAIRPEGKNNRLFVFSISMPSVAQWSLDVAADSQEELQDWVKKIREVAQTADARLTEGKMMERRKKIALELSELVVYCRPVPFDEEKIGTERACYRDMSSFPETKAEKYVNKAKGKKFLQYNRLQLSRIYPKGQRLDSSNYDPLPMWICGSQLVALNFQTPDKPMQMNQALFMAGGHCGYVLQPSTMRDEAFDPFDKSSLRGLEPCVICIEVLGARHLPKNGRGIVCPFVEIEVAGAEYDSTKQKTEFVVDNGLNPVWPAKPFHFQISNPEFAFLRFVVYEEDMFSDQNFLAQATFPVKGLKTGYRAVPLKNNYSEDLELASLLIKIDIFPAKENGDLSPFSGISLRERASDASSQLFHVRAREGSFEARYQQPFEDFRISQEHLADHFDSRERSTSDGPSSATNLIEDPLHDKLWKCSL
Excerpt: (§1) Determining whether pY816 may be beneficial in epileptic animals required modification of our study of the kainic acid (KA)-status epilepticus (SE) model. To more closely mimic the clinical scenario in which patients seek medical attention for established TLE, we induced KA-SE and then conducted video-EEG recordings to detect spontaneous recurrent seizures during baseline periods of two to four weeks until they developed TLE prior to treating with pY816 peptide. In contrast to just three days of treatment with pY816 deployed in previous studies, we sought a more prolonged treatment with pY816 for the current experiments, namely two weeks. The intravenous route of administration used for three days in the prior studies was not feasible for two weeks, leading us to ask whether treatment via intraperitoneal route could inhibit activation of PLCγ1. We used the phosphorylation of residue Y783 of PLCγ1 detected on western blot of brain lysates as a surrogate measure of PLCγ1 activation.
Hippocampal lysates (30-40 μg) were subjected to SDS_PAGE and western blotting. The blots were probed with antibodies specifically recognizing p-PLCγ1 (pY783) (a surrogate for activation of PLCγ1) and PLCγ1.

[1] = test system: epileptic animals (KA-SE); test: Spontaneous recurrent seizures (video-EEG) after kainic acid-induced status epilepticus (KA-SE model of TLE); format: in vivo, mice; details: 20 mg/kg IP twice daily for two weeks
Excerpt: as §1
Having verified that intraperitoneal administration of pY816 inhibited PLCγ1 activation, we then asked whether treatment with pY816 initiated after onset of epilepsy and continued for two weeks would reduce the severity of epilepsy or even induce a remission. Towards that end, we induced KA-SE but then followed the animals for several weeks until they developed TLE as assessed by detection of SRS in continuous video-EEG recordings. We quantified the number of SRS in each animal by blinded review of video-EEG recordings during three distinct two week epochs (FIG. 8): a) baseline; b) treatment with pY816 (n=9) or Scr control (n=6), 20 mg/kg IP twice daily for two weeks (on Tx); c) following termination of treatment (Post Tx). As noted in FIG. 8, following induction of status epilepticus induced by infusion of kainic acid into amygdala (Gu et al 2015) animals underwent continuous video-EEG recording to detect spontaneous recurrent seizures. Following baseline recording of two weeks, animals were treated with either pY816 or Scr control peptide (20 mg/kg) twice daily for two weeks (Day 15-28). Video-EEG recording continued for two weeks following termination of treatment (Post-treatment).
Results are shown in FIG. 9, where each symbol represents the number of seizures experienced by a given animal during Baseline, Treatment (Tx), or Post-treatment (Post Tx) periods. Horizontal bars designate median. Treatment (Tx) consisted of either pY816 or Scr control given 20 mg/kg twice daily for two weeks. Note that seizure detection was performed by analyses of video-EEG recordings by two blinded investigators.
Antiseizure drugs in current clinical use provide symptomatic relief of seizures in many but not all patients, but seizures typically recur upon cessation of the drug. To verify that similar findings occur in our animal model, we tested the effect of an antiseizure drug in current clinical use in our model (carbamazepine). We infused additional animals with KA and assessed the occurrence of SRS with continuous video-EEG monitoring for several weeks. […] Thus, like TLE in humans, continuous treatment with an antiseizure drug suppresses seizures, yet seizures recur upon discontinuation of treatment.

SMILES: CC[C@H](C)[C@H](NC(=O)[C@H](CC(=O)O)NC(=O)[C@H](CC(C)C)NC(=O)[C@H](Cc1ccc(OP(=O)(O)O)cc1)NC(=O)[C@@H](NC(=O)[C@@H]1CCCN1C(=O)[C@H](CO)NC(=O)[C@H](C)NC(=O)[C@H](CCCCN)NC(=O)[C@H](C)NC(=O)[C@H](CC(C)C)NC(=O)[C@H](CC(N)=O)NC(=O)[C@H](CCC(N)=O)NC(=O)[C@H](CC(C)C)NC(=O)[C@H](CCCNC(=N)N)NC(=O)[C@H](CCCNC(=N)N)NC(=O)[C@H](CCCNC(=N)N)NC(=O)[C@H](CCC(N)=O)NC(=O)[C@H](CCCNC(=N)N)NC(=O)[C@H](CCCNC(=N)N)NC(=O)[C@H](CCCCN)NC(=O)[C@H](CCCCN)NC(=O)[C@H](CCCNC(=N)N)NC(=O)CNC(=O)[C@@H](N)Cc1ccc(O)cc1)C(C)C)C(=O)O [pY816] (H-YGRKKRRQRRRLQNLAKASPV[pY]LDI-OH)
- Inhibition of PLCγ1 activation (reduction of p-PLCγ1 (pY783)/PLCγ1 ratio versus Scr) (PLCγ1): ~60%
- Overt untoward effects during or following treatment [1]: No overt untoward effects were detected
